Measured values from patent US20240173440A1, “HIGH PURITY COPPER RADIOPHARMACEUTICAL COMPOSITIONS AND DIAGNOSTIC AND THERAPEUTIC USES THEREOF” (Nuclidium AG, priority 2022, published 2024).

How the values were obtained:
PSMA [1] = target: T1, PSMA (Homo sapiens (Human), UniProt Q04609); experiment: Specificity study: PET/CT in LNCaP xenografts after blocking with 2-PMPA, and free [61Cu]CuCl2; type: in vivo, mice; details: PET/CT 1 hour p.i.
Experimental: The specificity of [^61Cu]Cu-NODAGA-PSMA-I&T and [^61Cu]Cu-DOTAGA-PSMA-I&T was assessed in LNCaP xenografted mice, firstly injected with 1.3 μmol (300 μg) of 2-Phosphonomethyl pentanedioic acid (2-PMPA) as the blocking agent, followed by the injection of the radiotracer e.g. [^61Cu]Cu-DOTAGA-PSMA-I&T (100 μL/[…]/4-8 MBq) or [^61Cu]Cu-NODAGA-PSMA-I&T (100 μL/[…]/4-8 MBq). One-hour post injection PET/CT images were acquired as described in Example 8. In addition, PET/CT image of xenografts after injection of [^61Cu]CuCl2 (100 μL/7 MBq) was acquired in order to assess the total body distribution of free (uncomplexed)^61Cu. The results are shown in FIG. 10, panels A and B. L=liver; K=kidneys; T=tumor; Bl=bladder; I=intestine.

[2] = Lipophilicity, log D by shake-flask method (1-octanol/PBS pH 7.4); type: physicochemical; details: shake-flask, Table 17, mean ± SD
In short: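 Radiotracer shaken 30 min in pre-saturated 1-octanol/PBS pH 7.4 (1:1), then centrifuged for phase separation. Radioactivity in each phase measured by gamma counting; log D reported as the average log of organic/PBS activity ratio.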

LNCaP xenografts = experiment: PET/CT imaging in LNCaP xenografted mice; type: in vivo; details: LNCaP-xenografted nude mice
Experimental: Tumor xenografted mice were injected intravenously into the tail vein with the tested radiotracer. […] Mice were anesthetized with 1.5% isoflurane and dynamic PET scans were acquired during 1 hour upon injection of the radiotracer. The mice were euthanized by CO2 at 4 hours p.i., the bladder was mechanically emptied, and static PET scans were acquired for 30 min. PET images were acquired using the R-CUBE PET scanner system (MOLECUBES, Gent, Belgium) and they were decay corrected and reconstructed with the VivoQuant software version 4.0. The CT was imaged supine, headfirst, using the NanoSPECT/CT™ scanner (Bioscan Inc.). Topograms and helical CT scans of the whole mouse were first acquired using the following parameters: X-ray tube current: 177 μA, X-ray tube voltage 45 kVp, 90 seconds and 180 frames per rotation, pitch 1. CT images were reconstructed using CTReco (version r1.146), with a standard filtered back projection algorithm (exact cone beam) and post-filtered (RamLak, 100% frequency cut-off), resulting in a pixel size of 0.2 mm. Co-registered PET/CT images were visualized using maximum intensity projection (MIP) with InVivoScope (version 1.43, Bioscan Inc.). The results are presented in the Examples that follow.

PSMA [3] = target: T1, PSMA; experiment: PET/CT imaging in a patient with metastatic prostate cancer; type: in vivo; details: metastatic castration resistant prostate cancer, imaging 3 hours after administration
Experimental: Radiopharmaceutical preparation: The reaction is carried out in a GE Healthcare FASTlab 2 module. A 40 μg (28 nmol) aliquot of lyophilized NODAGA-PSMA-I&T (piCHEM, Austria) was dissolved in up to 6 mL 0.5 M sodium acetate (pH 8) and ascorbic acid (20 μg/mL), and transferred to a reaction vial. Then [^61Cu]CuCl2 in 0.05 M hydrochloric acid (0.3-1.0 GBq/mL) (3 mL) was added to the NODAGA-PSMA-I&T solution, reaching a pH between 4.5 and 6.5. The obtained reaction solution was incubated for 10 min at room temperature (approx. 20-25° C.) and dispensed to the product vial (20 mL sterile evacuated vial) over a sterile Cathivex-GV 25 mm PVDF 0.22 μm filter. The product was finally diluted with 0.9% sodium chloride for injection (B. Braun, Germany) up to 12 mL. [^61Cu]Cu-NODAGA-PSMA-I&T is produced with high radiochemical purity (≥95%). Therefore, no further purification step is necessary. All the chemicals used are trace metal grade.
The patient was co-administered […] furosemide (Lasix®, Sanofi-Aventis, Frankfurt, Germany). The imaging was performed at 3 hours following radiotracer administration on a Biograph Vision 600 (Siemens, Germany) PET/CT scanner. These images, shown in FIG. 35, were obtained from the skull to mid-thigh and reconstructed into multiplanar PT, CT, and fused PET/CT images. CT was used for attenuation correction.

T1 sequence (Q04609 whole entry): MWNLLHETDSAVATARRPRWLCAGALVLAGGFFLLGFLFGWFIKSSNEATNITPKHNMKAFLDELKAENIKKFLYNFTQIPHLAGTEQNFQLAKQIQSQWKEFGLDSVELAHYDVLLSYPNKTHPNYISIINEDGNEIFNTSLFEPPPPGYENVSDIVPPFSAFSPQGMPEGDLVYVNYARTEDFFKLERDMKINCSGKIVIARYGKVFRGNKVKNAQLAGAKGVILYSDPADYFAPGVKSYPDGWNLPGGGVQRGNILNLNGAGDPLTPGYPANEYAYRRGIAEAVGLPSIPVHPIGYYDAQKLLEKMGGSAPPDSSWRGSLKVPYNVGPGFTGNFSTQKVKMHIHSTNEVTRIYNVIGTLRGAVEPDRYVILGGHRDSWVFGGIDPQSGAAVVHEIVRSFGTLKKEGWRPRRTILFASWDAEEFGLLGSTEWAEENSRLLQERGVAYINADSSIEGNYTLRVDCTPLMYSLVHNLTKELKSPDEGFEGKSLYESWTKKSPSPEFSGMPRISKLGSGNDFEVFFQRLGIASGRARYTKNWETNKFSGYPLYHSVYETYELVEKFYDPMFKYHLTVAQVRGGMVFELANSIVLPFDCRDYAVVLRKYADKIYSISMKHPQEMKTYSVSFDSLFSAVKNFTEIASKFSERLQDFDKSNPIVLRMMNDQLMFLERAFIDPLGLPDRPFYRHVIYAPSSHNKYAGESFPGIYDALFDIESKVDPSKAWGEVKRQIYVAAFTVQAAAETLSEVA

## O=C(O)CC[C@H](NC(=O)N[C@@H](CCCCNC(=O)CCCCCCC(=O)NCCCC[C@@H](NC(=O)[C@@H](Cc1ccccc1)NC(=O)[C@@H](Cc1ccc(O)c(I)c1)NC(=O)CC[C@H](C(=O)O)N1CCN2CCN(CC1)CC(=O)[O][61Cu][O]C(=O)C2)C(=O)O)C(=O)O)C(=O)O [[^61Cu]Cu-NODAGA-PSMA-I&T]
PSMA [1]
  uptake in PSMA-positive tumors and kidneys in xenografts pre-injected with 2-PMPA: significantly lower uptake
[2]
  log D(O/PBS pH 7.4): −2.95±0.08
LNCaP xenografts
  distribution on PET/CT images: accumulated in the tumor, increasing from 15 up to 60 min p.i., and in the kidneys
PSMA [3]
  tracer uptake on PET/CT in patient: intense tracer uptake by multiple osseous, pelvic lymph node, and liver metastases
